Laboratory results from PubChem BioAssay (NCI).
Several values for one entry are separate records, joined by “and”; a condition that tells them apart may be missing. Equal entries are not always repeated.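 Exposure lasted 48 hours, with cells grown in 96-well plates and compounds tested at five concentrations. The concentration for 50% growth inhibition is given as GI50. The concentration for full growth arrest is given as TGI.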

Key:
Assay in all cases: DTP human tumour cell line panel, 48 h
A498 renal = system: A498 renal
ACHN renal = system: ACHN renal
MCF7 breast = system: MCF7 breast
MDA-MB-435 = system: MDA-MB-435
NCI-H226 lung = system: NCI-H226 lung
SF-295 CNS = system: SF-295 CNS
SK-MEL-2 melanoma = system: SK-MEL-2 melanoma
SK-MEL-5 melanoma = system: SK-MEL-5 melanoma
SN12C renal = system: SN12C renal
UACC-257 melanoma = system: UACC-257 melanoma

Row | Compound | GI50 (A498 renal) | TGI (A498 renal) | GI50 (ACHN renal) | TGI (ACHN renal) | GI50 (MCF7 breast) | TGI (MCF7 breast) | GI50 (MDA-MB-435) | TGI (MDA-MB-435) | GI50 (NCI-H226 lung) | TGI (NCI-H226 lung) | GI50 (SF-295 CNS) | TGI (SF-295 CNS) | GI50 (SK-MEL-2 melanoma) | TGI (SK-MEL-2 melanoma) | GI50 (SK-MEL-5 melanoma) | TGI (SK-MEL-5 melanoma) | GI50 (SN12C renal) | TGI (SN12C renal) | GI50 (UACC-257 melanoma) | TGI (UACC-257 melanoma)
1 | FC(F)(F)c1cccc(Oc2ccc(Nc3ncnc4ccc(OCCCN5CCOCC5)cc34)cc2Cl)c1 | 2.37 µM | 12.8 µM | 1.62 µM | 11.1 µM | 1.74 µM | 5.17 µM | 1.63 µM | 3.39 µM | 15 µM | 41 µM | 1.75 µM | 3.49 µM | 2.54 µM | 6.1 µM | 1.75 µM | 3.15 µM | 2.2 µM | 11.8 µM | 2.03 µM | 4.52 µM
2 | CN1C(c2ccccc2)CC(=NO)CC1c1ccccc1 (centres undefined) |  | > 100 µM |  | > 100 µM | 44.3 µM |  | 61 µM |  |  | > 100 µM | 44.5 µM | > 100 µM |  | > 100 µM | 71.8 µM | > 100 µM | 30.6 µM | 58.9 µM and 97.1 µM | 26.8 µM | > 100 µM and 79.9 µM
3 | CCOc1ccc(Nc2ccnc3cc(Cl)ccc23)cc1 | 2.61 µM | > 100 µM | 49.6 µM | > 100 µM | 34.5 µM | > 100 µM | > 100 µM | > 100 µM | 79.7 µM | > 100 µM | 34.4 µM | > 100 µM | > 100 µM | > 100 µM | > 100 µM | > 100 µM | > 100 µM | > 100 µM | > 100 µM | > 100 µM
4 | COc1ccc(OC)c(-c2cc(-c3ccc(Cl)cc3)nn2-c2ccccc2)c1 | 6.57 µM | 59.7 µM | 46.2 µM | > 100 µM | 6.89 µM | > 100 µM | 18.3 µM | 46.1 µM | 33 µM | > 100 µM | 33.5 µM | > 100 µM | > 100 µM | > 100 µM | 42.2 µM | > 100 µM | 23.9 µM | 69.6 µM | 6.45 µM | 49.1 µM
5 | COc1ccc2c(c1)c1ccc3c(c1n2C)C(=O)C=CC3=O |  | 53.5 µM |  | 14.9 µM |  | 15.5 µM |  | 22.7 µM |  | 32.8 µM |  | 56.9 µM |  | 34.7 µM |  | 43.6 µM |  | 15.6 µM |  | 24.9 µM
6 | C[C@]12CC[C@@H]3c4ccc(O)cc4CC[C@H]3[C@@H]1CC(Cc1ccccc1)(Cc1ccccc1)C2=O | 21.3 µM | 36.5 µM | 14.5 µM | 27.9 µM | 15.6 µM | 46.8 µM | 20.7 µM | 57 µM | 16 µM | 31.3 µM | 21.4 µM | 49.1 µM | 24.8 µM | 53.6 µM | 17.9 µM | 31.8 µM | 14.8 µM | 29.2 µM | 18.4 µM | 39.5 µM
7 | COc1cccc(C2SC(C)C(=O)N2NC(=O)C(O)c2ccccc2)c1 (centres undefined) | > 100 µM | > 100 µM | > 100 µM | > 100 µM | > 100 µM | > 100 µM | > 100 µM | > 100 µM | > 100 µM | > 100 µM | > 100 µM | > 100 µM | > 100 µM | > 100 µM | > 100 µM | > 100 µM | > 100 µM | > 100 µM | > 100 µM | > 100 µM
8 | NC(=O)c1ccc(I)c([N+](=O)[O-])c1 | > 78.7 µM | > 100 µM | > 69.3 µM | > 100 µM | > 80.5 µM | > 100 µM | > 75.6 µM | > 100 µM | > 100 µM | > 100 µM | > 92.7 µM | > 100 µM | > 100 µM | > 100 µM | > 100 µM | > 100 µM | > 75.9 µM | > 100 µM | > 80.4 µM | > 100 µM
9 | COc1cc(/C=C2\C[C@H]3[C@@H]4CC=C5C[C@@H](O)CC[C@]5(C)[C@H]4CC[C@]3(C)[C@H]2O)ccc1OCCN1CCCCC1 | 14.3 µM | 31.3 µM | 0.706 µM | 1.37 µM | 1.31 µM | 20.5 µM | 0.945 µM | 1.8 µM | 2.53 µM | 5.62 µM | 0.906 µM | 1.75 µM | 5 µM | > 50 µM | 0.576 µM | 1.19 µM | 0.813 µM | 1.75 µM | 1.61 µM | 5.02 µM
10 | O=c1oc2ccc(F)cc2c(=O)n1-c1ccc(I)cc1F | 0.191 µM | 0.646 µM | 0.43 µM | 7.39 µM | 0.762 µM | 9.03 µM | 0.419 µM | 3.94 µM | 0.472 µM | 4.5 µM | 1.86 µM | 3.68 µM | 0.344 µM | 1.9 µM | 0.224 µM | 0.521 µM | 0.381 µM | 5.45 µM | 0.432 µM | 4.79 µM
11 | Cc1cc(C)c([I+]c2c(C)cc(C)cc2C)c(C)c1 | 1.56 µM | 3.64 µM | 1.17 µM | 2.47 µM | 0.325 µM | 1.46 µM | 0.327 µM | 1.24 µM | 0.505 µM | 1.92 µM | 0.591 µM | 2.18 µM | 0.482 µM | 1.61 µM | 0.201 µM | 0.476 µM | 0.301 µM | 1.21 µM | 0.296 µM | 1.09 µM
